Experimental data from patent publication US20140045764A1, “NEUROPROTECTIVE PEPTIDES” (Neurim Pharmaceuticals (1991) Ltd., priority 2012, published 2014).
Marks after values point to notes of the source that are not given here.

Assays:
[1] = system: MPTP-treated mice; experiment: MPTP mouse Parkinson's model, striatal dopamine and metabolites by HPLC; format: in vivo, C57BL mice; conditions: for DA / DOPAC / HVA: striatal level, peptide 1 mg/kg intranasal, divided by total protein and normalized to vehicle treated mice
Protocol: C57BL mice (all male, age 8-12 weeks, obtained from Harlan Laboratories Israel) were administered with 18 mg/kg MPTP (Sigma-Aldrich) at a dosage volume of 100 μl/mouse by intraperitoneal (IP) injection twice daily, 3 hrs apart on days 1 and 2. On study day 0 and for 8 consecutive days, mice were administered intranasally with PBS (vehicle) or one of the peptides at 1 mg/kg in 12 μl/mouse. All peptides used in in vivo studies were synthesized by LifeTein and were modified with N terminal acetylation and C terminal amidation. For intranasal instillation, each mouse was mildly anesthetized (2.5% Isoflurane) then restrained and held with the neck parallel to the table while a total volume of 12 μl was administered into the nostril. Six (6) μl was administered to the left nostril as two 3 μl drops, followed by a 15 sec hold, and 6 μl was administered to the right nostril as two 3 μl drops, followed by a 15 seconds hold. On day 8 the animals were euthanized by cervical dislocation. Immediately after euthanasia, the brains were removed and the striata dissected (left and right striatum were pooled), weighed and frozen in dry ice. The striata samples were homogenized in a solution containing 0.1 M perchloric acid and 10 ng/ml 3,4 dihydroxybenzylamine (DHBA) by 5 seconds sonication at 80 W. The supernatants of each tissue extract were injected directly to HPLC pump (Jasco PU-2080Plus) onto a reverse phase column (GL-Science, Inertsil ODS-2 5 um 4.6×150 mm at room temperature) coupled to an electrochemical detector Coulochem II ESA with a conditioning cell model 5021 and analytical cell model 5011. The working potential was set to 0.35V on the conditioning cell and 0.1V and −0.35V on the analytical cell. The mobile phase was 0.05M monobasic sodium phosphate, with 80 mg/L EDTA, 125 mg/L heptane sulfonic acid, 55 ml of methanol and 50 ml of acetonitrile pH=2.7. The flow rate was 1.5 ml/min. The dopamine, DOPAC and HVA values were normalized to the lysate protein concentration (BCA kit, Pierce).
In this model, repeated itraperitoneal injections of MPTP (18 mg/kg at 3-h intervals on two consecutive days) result in dopaminergic neuronal death in the substantia nigra and dopamine depletion of the striatum. The peptides (or vehicle) were applied twice daily by intranasal instillation at 1 mg/kg starting 1 day prior to exposure to MPTP and continued until the end of the study. 7 days after the injection of MPTP mice were sacrificed and striatal levels of dopamine (DA), […] (DOPAC) and homovanillic acid (HVA) were evaluated by HPLC.
Specifically Table 2 illustrates the effect of human V6 and V 10-derived peptides (1 mg/kg, intranasal administration) on the striatal level of dopamine and metabolites in MPTP-treated mice. Mice were treated according to the protocol described in the Materials and Methods. Striatal levels of DA, DOPAC and HVA were determined by HPLC, divided by the total protein content value and normalized to the levels obtained in vehicle treated mice. Groups 1 and 3 treated with 1:1 mix of normal designated and retro-inverso analog (D amino acids at reversed sequence). Group 6 was treated with 1:1 mix of 10B2.5—6 and 10B2.5—9 peptides.

[2] = Pharmacokinetics after subcutaneous administration in rats (plasma, LC-MS/MS); format: in vivo, Sprague Dawley rats; conditions: subcutaneous 1 mg/kg; for Cmax: male, Sprague-Dawley, sc, rat plasma, read-out: apparent Cmax
Protocol: The pharmacokinetics of the peptides was evaluated following SC peptide administration in male Sprague Dawley rats. Peptide solution was prepared using phosphate buffer saline (pH 7.4) as vehicle and was administered through subcutaneously at the dose of 1 mg/kg with dosing volume of 2 mL/kg.
Blood samples were collected at 0 (pre-dose) and 0.17, 0.5, 1, 2, 4, 8 and 24 hours following administration. At each time point, approximately 0.25 mL of blood was withdrawn through jugular vein of the cannulated rats and transferred to a pre-labeled microfuge tube containing 200 mM K2EDTA (20 μL per mL of blood). Following sampling equal volume of heparinized saline was flushed in to catheter. Blood samples were centrifuged at 5000 g for 5 minutes at 4±2° C. All the plasma samples were stored below −70° C. until analysis. A fit-for-purpose LC-MS/MS method was used for the quantification of the peptides in plasma samples. The lower limit of quantification (LLOQ) was 22.34 ng/mL.

[3] = system: N2A mouse neuroblastoma cells; experiment: Protection of N2A cells from 6-OHDA (viability, alamar blue); format: cell-based; conditions: 30 or 40 μM 6-OHDA 22 hrs, peptide 10 fM and 1 μM
Protocol: All peptides were synthesized by LifeTein (South Pleinfield, N.J., USA) at >95% purity. N2A mouse neuroblastoma and SK-N-SH human neuroblastoma (ATCC) were maintained in Dulbecco's modified Eagle's medium supplemented with 10% fetal calf serum, L-Glut and 1% Penicillin-Streptomycin (Beit Haemek, Israel). Cells were maintained in an incubator at 37° C. with 5% CO2. SK-N-SH cells were treated with 3 μM RA (Sigma-Aldrich) for 5 days prior to each experiment to allow the cells to differentiate towards neuronal cells. […] The intensity of the water soluble dye is proportional to the number of metabolic active cells. […] The viability assay was followed by caspase 3 assay (EnzChek Caspase3 Assay kit, Invitrogen, Carlsbad, Calif., USA) according to the manufacture's instructions
All methods are the same as in Example 1 above. Peptides and 6-hydroxydopamine were purchased from Sigma-Aldrich (St. Lewis, USA).
These peptides were screened for their protective effect on 6-hydroxydopamine (6-OHDA) treated N2A cells at 1 pM concentration. 6-OHDA is a dopamine analogue that is commonly used in model systems to mimic Parkinson's disease in vitro and in vivo, 6-OHDA induces apoptosis through release of reactive oxygen species (ROS) and by a possible direct effect on the mitochondrial respiratory chain. […] The protective effect of some of the peptides was tested in a wide dose range. […] The peptide panel was also tested for their effect on Aβ (25-35) induced toxicity in SK-N-SH human neuroblastoma cells at pM concentration. The profile of peptides effective against the Aβ stress was strikingly different than the 6-OHDA-effective peptides (FIGS. 7A-B).
The peptides shown on Table 3 were tested for their effect in protecting N2A from 6-OHDA (FIG. 8). […] Such modifications include C-terminus truncation (26-1, 26-2 and 26-3), replacement of the N-terminal glutamic acid residue with glutamine and histidine at position 7 with alanine (26-8 and 26-9, respectively).

[4] = system: Aβ(1-42) microinjection rat model; experiment: Aβ(1-42) microinjection rat model, IH/ICV peptide, novel object recognition; format: in vivo, Sprague Dawley rats; conditions: 21 days after Aβ injection, p<0.01 versus vehicle
Protocol: Aβ(1-42) (Sigma-Aldrich, USA), was dissolved in filtered PBS at the concentration of 6 μg/μl, and the solution kept at 37° C. for 2 days before use. One microliter of the solution was injected by means of a microsyringe into the right hippocampus under sodium pentobarbital (55 mg/kg i.p.) anesthesia at the stereotaxic coordinates: AP=−3.6, ML=2.0, from Bregma and DV=3.0 from the skull. Control rats were injected with 1 μl of PBS. In the IH/ICV study, 1 μl of the peptide or PBS was also injected into the right hippocampus at the same stereotaxic coordinates.
For ICV injection, a microinjection cannula was planted into the lateral cerebral ventricle according to the following stereotaxic coordinates: AP=−1, ML=1.6, DV=3.8. […]
The training apparatus was a black Plexiglas box (50×50×40 cm) placed in a sound-attenuating cabinet which was located in a brightly lit and isolated room. […] During the training trial, the rat was placed in the box and allowed to explore two identical objects for 10 min and the total time spent exploring both objects was recorded. […] The rat was placed in the box for 3 min and the time spent exploring each object and the total time spent exploring both objects were recorded. The discrimination index used to assess memory was calculated as the difference in time exploring the novel and familiar object, expressed as the ratio of the total time spent exploring both objects. […]

[5] = system: Met tyrosine kinase receptor; conditions: literature reference [24]; cited from earlier work

Compound	DA [1]	DOPAC [1]	HVA [1]	activity in protecting N2A from 6-OHDA [3]	levels of at least one of the 2 DA metabolites, DOPAC and HVA ([1]; 1 mg/kg intranasal)	other results
TTLLEG (Human V10A1_N6 peptide)	17.7	24.3	−0.7	–	–	–
Ac-EGYTSHYP-NH2 (N-terminus and C-terminus assumed) [V10A1_N+4, EGYTSHYP]	–	–	–	–	–	Cmax [2]: 130 ng/mL
EGYTS (Human 26-3 peptide)	–	–	–	maintaining at least partial activity	–	–
NVNRSLSGD (Human V10B2.5_9 peptide)	–	–	–	–	increased significantly	–
FGVTAVTV (Human V10B1_8 peptide (also referred to as P34))	46.6 *	75.9 **	83.3 **	–	increased significantly	effect on striatal DA level compared to the vehicle control ([1]; 1 mg/kg intranasal): significantly positive effect; discrimination index, novel object recognition ([4]; 10 ng/rat IH/ICV): increased significantly; discrimination index, novel object recognition ([4]; 100 ng/rat IH/ICV): increased significantly
QGYTSHYP (Human 26-8 peptide)	–	–	–	maintaining at least partial activity	–	–
PVTSAKTGSFG [V10A/B_S]	26.6	27.2	13.7	–	–	–
EDSH (Human V6B1_C4 peptide) [hV6B1_C4]	20.7	41.7	16.6	–	–	–
NRWHE (A pentapeptide derived from the human V6)	–	–	–	–	–	inhibiting hepatocyte growth factor (HGF) signal transduction through Met tyrosine kinase receptor [5]: capable of inhibiting
NVNRSL (Human V10B2.5_6 peptide)	–	–	–	–	increased significantly	–
EGYTSHY (Human 26-1 peptide)	–	–	–	maintaining at least partial activity	–	–
hV10A2: human CD44V10-derived peptide, SEQ ID NO: 12; sequence not printed (TKESRTFIPVTSAKT; Human V10A2 peptide)	24.7	54.8 *	73.4 **	–	increased significantly	–
CC(=O)N1CCC[C@@H]1C(=O)N[C@H](Cc1ccc(O)cc1)C(=O)N[C@H](Cc1c[nH]cn1)C(=O)N[C@H](CO)C(=O)N[C@@H](C(=O)N[C@H](Cc1ccc(O)cc1)C(=O)NCC(=O)N[C@H](CCC(=O)O)C(N)=O)[C@H](C)O (relative stereo) [26-RI, *P*Y*H*S*T*Y*G*E]	–	–	–	–	–	Cmax [2]: 1230 ng/mL; improvement of Cmax compared to P26 ([2]; rat): 10 fold
EGYTSH (Human 26-2 peptide)	–	–	–	maintaining at least partial activity	–	–
hV10B3: human CD44V10-derived peptide, SEQ ID NO: 15; sequence not printed (SLSGDQDTFHPSG; Human V10B3 peptide)	18.1	22.5	44.2 *	–	increased significantly	–
EGYTSAYP (Human 26-9 peptide)	–	–	–	maintaining at least partial activity	–	–
